Laboratory results reported in patent US12304900B2, “Islet cell manufacturing compositions and methods of use” (Vertex Pharmaceuticals Incorporated, priority 2017, dated 2025).

System: PGT cells (Stage 2 cells)
Experiment: Flow cytometry of cell constituent at Stage 4-complete after signaling factors at Stage 3
Assay type: cell-based
Excerpt: In the meantime, LDN193189 also promoted chromogranin A (CHGA) expression in Stage 4-complete cells.

[1] = Stage 4-complete, 0.5 μM DMH-1 alone vs no DMH-1, FIG. 6B

SMILES	percentage of cells expressing CDX2 [1]	percentage of cells expressing CHGA [1]	chromogranin A (CHGA) expression (Stage 4-complete cells, LDN193189 at Stage 3, FIG. 6A)	percentage of CDX2-positive cells (Stage 4-complete, LDN193189 at Stage 3 vs absence, FIG. 6A)
CC(C)Oc1ccc(-c2cnc3c(-c4ccnc5ccccc45)cnn3c2)cc1 [DMH-1]	reduced	increased	–	–
c1ccc2c(-c3cnn4cc(-c5ccc(N6CCNCC6)cc5)cnc34)ccnc2c1 [LDN193189, 4-[6-(4-piperazin-1-ylphenyl)pyrazolo[1,5-a]pyrimidin-β-yl]quinolone]	–	–	promoted	clearly reduced
